Assay: xn = mol fraction of the nth substance listed
Settings: 100 kPa, Liquid; for mass density: Vibrating tube method; for viscosity: Falling or rolling sphere viscometry

OCC1CC1 [cyclopropylmethanol] + CCCCCCCCCCCC
Settings	mass density [kg/m3]	viscosity [mPa·s]
318.15 K, x1 = 0.1135	736.06	–
318.15 K, x1 = 0.2127	742.4	–
318.15 K, x1 = 0.3059	749.51	–
318.15 K, x1 = 0.3804	756.13	–
318.15 K, x1 = 0.5067	769.82	–
318.15 K, x1 = 0.6019	782.78	–
318.15 K, x1 = 0.7011	799.61	–
318.15 K, x1 = 0.7921	819.33	–
318.15 K, x1 = 0.8991	850.32	–
318.15 K, x1 = 1	892.38	–
323.15 K, x1 = 0.1039	–	0.909
323.15 K, x1 = 0.1135	732.26	–
323.15 K, x1 = 0.2032	–	0.927
323.15 K, x1 = 0.2127	738.54	–
323.15 K, x1 = 0.3022	–	0.952
323.15 K, x1 = 0.3059	745.6	–
323.15 K, x1 = 0.3804	752.18	–
323.15 K, x1 = 0.3997	–	0.979
323.15 K, x1 = 0.4993	–	1.052
323.15 K, x1 = 0.5067	765.79	–
323.15 K, x1 = 0.5994	–	1.125
323.15 K, x1 = 0.6019	778.71	–
323.15 K, x1 = 0.7	–	1.22
323.15 K, x1 = 0.7011	795.48	–
323.15 K, x1 = 0.7921	815.17	–
323.15 K, x1 = 0.797	–	1.346
323.15 K, x1 = 0.8991	846.12	–
323.15 K, x1 = 0.9004	–	1.546
323.15 K, x1 = 1	888.13	1.843
328.15 K, x1 = 0.1039	–	0.849
328.15 K, x1 = 0.1135	728.45	–
328.15 K, x1 = 0.2032	–	0.864
328.15 K, x1 = 0.2127	734.66	–
328.15 K, x1 = 0.3022	–	0.884
328.15 K, x1 = 0.3059	741.65	–
328.15 K, x1 = 0.3804	748.19	–
328.15 K, x1 = 0.3997	–	0.907
328.15 K, x1 = 0.4993	–	0.969
328.15 K, x1 = 0.5067	761.73	–
328.15 K, x1 = 0.5994	–	1.031
328.15 K, x1 = 0.6019	774.6	–
328.15 K, x1 = 0.7	–	1.112
328.15 K, x1 = 0.7011	791.32	–
328.15 K, x1 = 0.7921	810.96	–
328.15 K, x1 = 0.797	–	1.221
328.15 K, x1 = 0.8991	841.86	–
328.15 K, x1 = 0.9004	–	1.391
328.15 K, x1 = 1	883.84	1.646
333.15 K, x1 = 0.1039	–	0.794
333.15 K, x1 = 0.1135	724.62	–
333.15 K, x1 = 0.2032	–	0.806
333.15 K, x1 = 0.2127	730.75	–
333.15 K, x1 = 0.3022	–	0.823
333.15 K, x1 = 0.3059	737.68	–
333.15 K, x1 = 0.3804	744.17	–
333.15 K, x1 = 0.3997	–	0.843
333.15 K, x1 = 0.4993	–	0.896
333.15 K, x1 = 0.5067	757.64	–
333.15 K, x1 = 0.5994	–	0.948
333.15 K, x1 = 0.6019	770.44	–
333.15 K, x1 = 0.7	–	1.018
333.15 K, x1 = 0.7011	787.11	–
333.15 K, x1 = 0.7921	806.7	–
333.15 K, x1 = 0.797	–	1.111
333.15 K, x1 = 0.8991	837.56	–
333.15 K, x1 = 0.9004	–	1.257
333.15 K, x1 = 1	879.49	1.476
338.15 K, x1 = 0.1039	–	0.745
338.15 K, x1 = 0.1135	720.77	–
338.15 K, x1 = 0.2032	–	0.755
338.15 K, x1 = 0.2127	726.81	–
338.15 K, x1 = 0.3022	–	0.769
338.15 K, x1 = 0.3059	733.68	–
338.15 K, x1 = 0.3804	740.12	–
338.15 K, x1 = 0.3997	–	0.785
338.15 K, x1 = 0.4993	–	0.831
338.15 K, x1 = 0.5067	753.5	–
338.15 K, x1 = 0.5994	–	0.875
338.15 K, x1 = 0.6019	766.25	–
338.15 K, x1 = 0.7	–	0.935
338.15 K, x1 = 0.7011	782.85	–
338.15 K, x1 = 0.7921	802.39	–
338.15 K, x1 = 0.797	–	1.015
338.15 K, x1 = 0.8991	833.19	–
338.15 K, x1 = 0.9004	–	1.141
338.15 K, x1 = 1	875.07	1.328
343.15 K, x1 = 0.1039	–	0.702
343.15 K, x1 = 0.1135	716.91	–
343.15 K, x1 = 0.2032	–	0.709
343.15 K, x1 = 0.2127	722.85	–
343.15 K, x1 = 0.3022	–	0.721
343.15 K, x1 = 0.3059	729.64	–
343.15 K, x1 = 0.3804	736.03	–
343.15 K, x1 = 0.3997	–	0.734
343.15 K, x1 = 0.4993	–	0.773
343.15 K, x1 = 0.5067	749.32	–
343.15 K, x1 = 0.5994	–	0.811
343.15 K, x1 = 0.6019	762	–
343.15 K, x1 = 0.7	–	0.862
343.15 K, x1 = 0.7011	778.54	–
343.15 K, x1 = 0.7921	798.03	–
343.15 K, x1 = 0.797	–	0.931
343.15 K, x1 = 0.8991	828.77	–
343.15 K, x1 = 0.9004	–	1.039
343.15 K, x1 = 1	870.62	1.201
